{"source": "paper PMC10033419", "about": "“Blocking NS3–NS4B interaction inhibits dengue virus in non-human primates” (Nature, 2023)", "key": {"DENV-1/45AZ5": {"test_system": "DENV-1/45AZ5", "test": "NHP DENV-1 study, IgM/IgG ELISA", "settings": "Negative = 100"}, "DENV-2/16681/eGFP": {"test_system": "DENV-2/16681/eGFP", "test": "microbe, parasite or virus in culture", "type": "cell-based", "settings": "Dengue virus, DENV2, Vero"}, "VACV Western reserve 56": {"test_system": "VACV Western reserve 56", "test": "microbe, parasite or virus in culture", "type": "cell-based", "settings": "Orthopoxvirus vaccinia, Vero C1008; VeroE6"}, "[1]": {"set-up": "method as in earlier work", "settings": "healthy volunteers ref 4; cited from earlier work"}, "DENV-2 RL strain": {"test_system": "DENV-2 RL strain", "test": "Antiviral assay, viral RNA RT-qPCR, Vero cells", "type": "cell-based"}, "[2]": {"test_system": "unrelated DNA and RNA viruses", "test": "Panel of unrelated DNA and RNA viruses", "type": "cell-based"}, "[3]": {"settings": "rhesus monkey, in vivo"}, "in vivo": {"test": "in vivo", "settings": "both, Indian-origin, rhesus monkey, po"}, "JEV CNS769-Laos 2009": {"test_system": "JEV CNS769-Laos 2009", "test": "microbe, parasite or virus in culture", "type": "cell-based", "settings": "Japanese encephalitis virus, Vero C1008"}, "Plasma protein binding": {"test": "Plasma protein binding", "type": "in vitro ADME", "settings": "mouse, mice"}, "DENV-2/16681": {"test_system": "DENV-2/16681", "test": "NHP DENV-2 study, anti-DENV IgG ELISA", "set-up": "species or system rhesus macaques (M. mulatta)", "settings": "rhesus monkey, in vivo"}, "WNV R94224": {"test_system": "WNV R94224", "test": "microbe, parasite or virus in culture", "type": "cell-based", "settings": "West Nile virus"}}, "note": "Read-outs that look alike come from different tables or passages of the source."}
{"smiles": "COc1cc(N[C@H](C(=O)c2c[nH]c3ccc(OC(F)(F)F)cc23)c2ccc(Cl)cc2OC)cc(S(C)(=O)=O)c1", "note": "[JNJ-1802]", "values": [{"measurement": "IgM ELISA Titer", "setting": "DENV-1/45AZ5; animal R10, Day 7", "value": 100}, {"measurement": "IgG ELISA Titer", "setting": "DENV-1/45AZ5; animal R10, Day 9", "value": 100}, {"measurement": "IgM ELISA Titer", "setting": "DENV-1/45AZ5; animal R10, Day 9", "value": 100}, {"measurement": "IgG ELISA Titer", "setting": "DENV-1/45AZ5; animal R10, Day 11", "value": 100}, {"measurement": "IgM ELISA Titer", "setting": "DENV-1/45AZ5; animal R10, Day 11", "value": 100}, {"measurement": "IgG ELISA Titer", "setting": "DENV-1/45AZ5; animal R10, Day 14", "value": 100}, {"measurement": "IgM ELISA Titer", "setting": "DENV-1/45AZ5; animal R10, Day 14", "value": 100}, {"measurement": "IgG ELISA Titer", "setting": "DENV-1/45AZ5; animal R10, Day 29", "value": 100}, {"measurement": "IgM ELISA Titer", "setting": "DENV-1/45AZ5; animal R10, Day 29", "value": 100}, {"measurement": "IgG ELISA Titer", "setting": "DENV-1/45AZ5; animal R11, Day 0", "value": 100}, {"measurement": "IgM ELISA Titer", "setting": "DENV-1/45AZ5; animal R11, Day 0", "value": 100}, {"measurement": "IgG ELISA Titer", "setting": "DENV-1/45AZ5; animal R11, Day 5", "value": 100}, {"measurement": "IgM ELISA Titer", "setting": "DENV-1/45AZ5; animal R11, Day 5", "value": 100}, {"measurement": "IgG ELISA Titer", "setting": "DENV-1/45AZ5; animal R11, Day 7", "value": 100}, {"measurement": "IgM ELISA Titer", "setting": "DENV-1/45AZ5; animal R11, Day 7", "value": 100}, {"measurement": "IgG ELISA Titer", "setting": "DENV-1/45AZ5; animal R11, Day 9", "value": 100}, {"measurement": "IgM ELISA Titer", "setting": "DENV-1/45AZ5; animal R11, Day 9", "value": 100}, {"measurement": "IgG ELISA Titer", "setting": "DENV-1/45AZ5; animal R11, Day 11", "value": 100}, {"measurement": "IgM ELISA Titer", "setting": "DENV-1/45AZ5; animal R11, Day 11", "value": 100}, {"measurement": "IgG ELISA Titer", "setting": "DENV-1/45AZ5; animal R11, Day 14", "value": 100}, {"measurement": "IgM ELISA Titer", "setting": "DENV-1/45AZ5; animal R11, Day 14", "value": 100}, {"measurement": "IgG ELISA Titer", "setting": "DENV-1/45AZ5; animal R11, Day 29", "value": 100}, {"measurement": "IgM ELISA Titer", "setting": "DENV-1/45AZ5; animal R11, Day 29", "value": 100}, {"measurement": "IgG ELISA Titer", "setting": "DENV-1/45AZ5; animal R12, Day 0", "value": 100}, {"measurement": "IgM ELISA Titer", "setting": "DENV-1/45AZ5; animal R12, Day 0", "value": 100}, {"measurement": "IgG ELISA Titer", "setting": "DENV-1/45AZ5; animal R12, Day 5", "value": 100}, {"measurement": "IgM ELISA Titer", "setting": "DENV-1/45AZ5; animal R12, Day 5", "value": 100}, {"measurement": "IgG ELISA Titer", "setting": "DENV-1/45AZ5; animal R12, Day 7", "value": 100}, {"measurement": "IgM ELISA Titer", "setting": "DENV-1/45AZ5; animal R12, Day 7", "value": 100}, {"measurement": "IgG ELISA Titer", "setting": "DENV-1/45AZ5; animal R12, Day 9", "value": 100}, {"measurement": "IgM ELISA Titer", "setting": "DENV-1/45AZ5; animal R12, Day 9", "value": 100}, {"measurement": "IgG ELISA Titer", "setting": "DENV-1/45AZ5; animal R12, Day 11", "value": 100}, {"measurement": "IgM ELISA Titer", "setting": "DENV-1/45AZ5; animal R12, Day 11", "value": 100}, {"measurement": "IgG ELISA Titer", "setting": "DENV-1/45AZ5; animal R12, Day 14", "value": 100}, {"measurement": "IgM ELISA Titer", "setting": "DENV-1/45AZ5; animal R12, Day 14", "value": 100}, {"measurement": "IgG ELISA Titer", "setting": "DENV-1/45AZ5; animal R12, Day 29", "value": 100}, {"measurement": "IgM ELISA Titer", "setting": "DENV-1/45AZ5; animal R12, Day 29", "value": 100}, {"measurement": "EC50", "setting": "DENV-2/16681/eGFP; Vero with 50% HS, read-out: EC50, protein-binding-adjusted", "value": 1.4, "unit": "nM"}, {"measurement": "EC90", "setting": "DENV-2/16681/eGFP; Vero with 50% HS, read-out: EC90, protein-binding-adjusted", "value": "4.8 ± 1.4", "unit": "nM"}, {"measurement": "EC50", "setting": "DENV-2/16681/eGFP; Vero, mean ± s.d., read-out: EC50", "value": "0.059 ± 0.03", "unit": "nM"}, {"measurement": "EC90", "setting": "DENV-2/16681/eGFP; Vero, read-out: EC90", "value": "0.161 ± 0.083", "unit": "nM"}, {"measurement": "EC50", "setting": "DENV-2/16681/eGFP; two DENV-2 laboratory strains in Vero, Huh-7, C6/36, THP-1/DC-SIGN, read-out: mean EC50, range", "value": "0.059 to 1.24", "unit": "nM"}, {"measurement": "EC50", "setting": "VACV Western reserve 56", "value": 8900, "unit": "nM"}, {"measurement": "safety and tolerability in humans", "setting": "[1]", "value": "safe and well tolerated"}, {"measurement": "EC90", "setting": "DENV-2 RL strain; Dengue virus, DENV2, Vero, Vero", "value": "0.275 ± 0.081", "unit": "nM"}, {"measurement": "EC50", "setting": "DENV-2 RL strain; Dengue virus, DENV2, Vero, Vero cells, DENV-2RL, EXP1-EXP3, read-out: EC50, single experiments", "value": 0.041, "unit": "nM"}, {"measurement": "EC90", "setting": "DENV-2 RL strain; Dengue virus, DENV2, Vero, Vero cells, DENV-2RL, EXP1-EXP3, read-out: EC90, single experiments", "value": 0.19, "unit": "nM"}, {"measurement": "EC50", "setting": "DENV-2 RL strain; Dengue virus, DENV2, Vero, Vero cells, DENV-2RL, median, read-out: EC50 MEDIAN", "value": 0.068, "unit": "nM"}, {"measurement": "EC90", "setting": "DENV-2 RL strain; Dengue virus, DENV2, Vero, Vero cells, DENV-2RL, median, read-out: EC90 MEDIAN", "value": 0.29, "unit": "nM"}, {"measurement": "EC50", "setting": "DENV-2 RL strain; Dengue virus, DENV2, Vero, Vero, read-out: EC50", "value": "0.062 ± 0.019", "unit": "nM"}, {"measurement": "EC50", "setting": "DENV-2 RL strain; Vero cells, DENV-2RL, EXP1-EXP3, read-out: EC50, single experiments", "value": 0.077, "unit": "nM"}, {"measurement": "EC90", "setting": "DENV-2 RL strain; Vero cells, DENV-2RL, EXP1-EXP3, read-out: EC90, single experiments", "value": 0.35, "unit": "nM"}, {"measurement": "activity against unrelated DNA and RNA viruses", "setting": "[2]", "value": "inactive"}, {"measurement": "adverse effects", "setting": "[3]", "value": "No adverse effects were observed"}, {"measurement": "weight loss", "setting": "[3]", "value": "not attributable to treatment with JNJ-1802"}, {"measurement": "bioavailability", "setting": "in vivo", "value": "18 to 27", "unit": "%"}, {"measurement": "AUC(0-t)", "setting": "in vivo; 0.18 mg/kg", "value": "491 ± 147", "unit": "ng·h/mL"}, {"measurement": "AUC(0-t)", "setting": "in vivo; 0.18 mg/kg, AUC(0-24h)", "value": "227 ± 146", "unit": "ng·h/mL"}, {"measurement": "Cmax", "setting": "in vivo; 0.18 mg/kg, Cmax", "value": "15.1 ± 8.5", "unit": "ng/mL"}, {"measurement": "Tmax", "setting": "in vivo; 0.18 mg/kg, tmax", "value": "8 to 24", "unit": "h"}, {"measurement": "EC50", "setting": "JEV CNS769-Laos 2009", "value": 590, "unit": "nM"}, {"measurement": "fraction unbound", "setting": "Plasma protein binding", "value": "< 0.001"}, {"measurement": "IgG seroconversion", "setting": "DENV-2/16681", "value": "observed at later timepoints"}, {"measurement": "animals with detectable anti-DENV IgG", "setting": "DENV-2/16681", "value": "none of the animals"}, {"measurement": "EC50", "setting": "WNV R94224; Vero C1008", "value": 250, "unit": "nM"}, {"measurement": "EC50", "setting": "WNV R94224; Vero C1008, read-out: mean EC50, range", "value": "250 to 1100", "unit": "nM"}]}
